Laboratory results published in ChEMBL document CHEMBL4421717, “Antagonists and agonists of bitter taste receptors and uses thereof” (2012).
Active and inactive are the calls of the source.

Assays:
Format in all cases: functional, cell-based
[1] = target: Taste receptor type 2 member 41 (Homo sapiens) (UniProt P59536); test: Agonist activity at recombinant human N-terminal rat ST3 receptor-fused TAS2R41 expressed in HEK293T cells co-expressing Galpha16gust44 assessed as effect on intracellular calcium level at 100 uM by FLIPR assay
[2] = target: T1, Taste receptor type 2 member 13 (Homo sapiens) (UniProt Q9NYV9); test: Agonist activity at recombinant human N-terminal rat ST3 receptor-fused TAS2R13 expressed in HEK293T cells co-expressing Galpha16gust44 assessed as effect on intracellular calcium level at 100 uM by FLIPR assay
T1 sequence (whole entry): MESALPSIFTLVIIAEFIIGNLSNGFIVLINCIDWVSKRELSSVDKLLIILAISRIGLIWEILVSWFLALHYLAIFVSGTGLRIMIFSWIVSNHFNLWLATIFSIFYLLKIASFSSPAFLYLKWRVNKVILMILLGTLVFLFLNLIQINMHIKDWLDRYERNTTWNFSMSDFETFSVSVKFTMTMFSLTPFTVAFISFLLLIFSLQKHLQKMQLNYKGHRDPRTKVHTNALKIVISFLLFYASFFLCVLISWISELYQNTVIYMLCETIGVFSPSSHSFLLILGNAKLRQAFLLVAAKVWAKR

[3] = target: Taste receptor type 2 member 5 (Homo sapiens) (UniProt Q9NYW4); test: Agonist activity at recombinant human N-terminal rat ST3 receptor-fused TAS2R5 expressed in HEK293T cells co-expressing Galpha16gust44 assessed as effect on intracellular calcium level at 100 uM by FLIPR assay
[4] = target: T2, Taste receptor type 2 member 39 (Homo sapiens) (UniProt P59534); test: Agonist activity at recombinant human N-terminal rat ST3 receptor-fused TAS2R39 expressed in HEK293T cells co-expressing Galpha16gust44 assessed as effect on intracellular calcium level at 100 uM by FLIPR assay
T2 sequence (whole entry): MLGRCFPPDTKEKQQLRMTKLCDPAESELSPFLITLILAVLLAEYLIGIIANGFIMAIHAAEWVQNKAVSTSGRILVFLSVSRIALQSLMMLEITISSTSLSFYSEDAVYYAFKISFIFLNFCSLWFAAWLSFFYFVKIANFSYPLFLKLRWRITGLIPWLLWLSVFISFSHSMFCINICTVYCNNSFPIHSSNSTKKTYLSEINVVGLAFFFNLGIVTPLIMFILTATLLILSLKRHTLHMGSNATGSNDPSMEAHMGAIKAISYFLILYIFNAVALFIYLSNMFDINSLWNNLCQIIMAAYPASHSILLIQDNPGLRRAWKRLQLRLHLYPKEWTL

[5] = target: Taste receptor type 2 member 45 (Homo sapiens) (UniProt P59539); test: Agonist activity at recombinant human N-terminal rat ST3 receptor-fused TAS2R45 expressed in HEK293T cells co-expressing Galpha16gust44 assessed as effect on intracellular calcium level at 100 uM by FLIPR assay
[6] = target: T3, Taste receptor type 2 member 20 (Homo sapiens) (UniProt P59543); test: Agonist activity at recombinant human N-terminal rat ST3 receptor-fused TAS2R49 expressed in HEK293T cells co-expressing Galpha16gust44 assessed as effect on intracellular calcium level at 100 uM by FLIPR assay
T3 sequence (whole entry): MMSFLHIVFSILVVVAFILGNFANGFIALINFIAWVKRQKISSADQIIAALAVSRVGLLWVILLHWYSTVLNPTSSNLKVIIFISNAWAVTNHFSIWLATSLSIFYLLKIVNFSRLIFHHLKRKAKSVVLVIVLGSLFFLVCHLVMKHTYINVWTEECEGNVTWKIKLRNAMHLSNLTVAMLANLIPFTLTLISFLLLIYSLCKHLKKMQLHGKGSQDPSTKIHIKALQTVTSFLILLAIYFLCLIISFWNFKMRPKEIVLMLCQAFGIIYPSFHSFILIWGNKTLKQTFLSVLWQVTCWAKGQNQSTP

[7] = target: T4, Taste receptor type 2 member 46 (Homo sapiens) (UniProt P59540); test: Competitive antagonist activity at recombinant human N-terminal rat ST3 receptor-fused TAS2R46 expressed in HEK293T cells co-expressing Galpha16gust44 assessed as inhibition strychnine-induced intracellular calcium level by FLIPR assay
T4 sequence (whole entry): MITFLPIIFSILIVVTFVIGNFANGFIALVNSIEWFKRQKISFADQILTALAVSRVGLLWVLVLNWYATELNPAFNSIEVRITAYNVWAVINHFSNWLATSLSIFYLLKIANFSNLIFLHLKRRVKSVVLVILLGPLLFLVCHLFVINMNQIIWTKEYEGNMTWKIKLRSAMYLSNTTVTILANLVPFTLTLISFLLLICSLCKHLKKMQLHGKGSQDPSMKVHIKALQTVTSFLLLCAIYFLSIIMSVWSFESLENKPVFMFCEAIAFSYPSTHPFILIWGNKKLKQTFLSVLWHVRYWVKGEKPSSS

[8] = target: Taste receptor type 2 member 5 (Homo sapiens) (UniProt Q9NYW4); test: Activity at recombinant human N-terminal rat ST3 receptor-fused TAS2R5 expressed in HEK293T cells co-expressing Galpha16gust44 assessed as increase in denatonium saccharide-induced intracellular calcium level at 100 uM by FLIPR assay
[9] = target: T5, Taste receptor type 2 member 8 (Homo sapiens) (UniProt Q9NYW2); test: Agonist activity at recombinant human N-terminal rat ST3 receptor-fused TAS2R8 expressed in HEK293T cells co-expressing Galpha16gust44 assessed as effect on intracellular calcium level at 100 uM by FLIPR assay
T5 sequence (whole entry): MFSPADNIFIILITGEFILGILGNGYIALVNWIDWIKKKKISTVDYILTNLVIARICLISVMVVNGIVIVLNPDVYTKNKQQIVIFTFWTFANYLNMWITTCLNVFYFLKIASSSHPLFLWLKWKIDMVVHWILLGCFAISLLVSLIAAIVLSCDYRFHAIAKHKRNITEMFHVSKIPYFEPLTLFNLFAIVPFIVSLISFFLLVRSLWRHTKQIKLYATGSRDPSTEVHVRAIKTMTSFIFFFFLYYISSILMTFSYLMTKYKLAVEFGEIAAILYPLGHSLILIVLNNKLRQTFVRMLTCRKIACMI

[10] = target: T6, Taste receptor type 2 member 9 (Homo sapiens) (UniProt Q9NYW1); test: Agonist activity at recombinant human N-terminal rat ST3 receptor-fused TAS2R9 expressed in HEK293T cells co-expressing Galpha16gust44 assessed as effect on intracellular calcium level at 100 uM by FLIPR assay
T6 sequence (whole entry): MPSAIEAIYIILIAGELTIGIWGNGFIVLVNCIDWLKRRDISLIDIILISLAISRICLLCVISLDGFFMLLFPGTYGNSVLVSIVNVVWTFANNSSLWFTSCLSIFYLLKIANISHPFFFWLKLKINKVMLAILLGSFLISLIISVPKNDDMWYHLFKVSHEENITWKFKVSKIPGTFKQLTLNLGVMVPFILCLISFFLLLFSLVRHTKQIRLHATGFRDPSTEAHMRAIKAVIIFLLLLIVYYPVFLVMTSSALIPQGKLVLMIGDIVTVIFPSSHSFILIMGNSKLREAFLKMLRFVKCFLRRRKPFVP

Sequence of Taste receptor type 2 member 5 (Homo sapiens) (Q9NYW4 whole entry, the tested form may be a part): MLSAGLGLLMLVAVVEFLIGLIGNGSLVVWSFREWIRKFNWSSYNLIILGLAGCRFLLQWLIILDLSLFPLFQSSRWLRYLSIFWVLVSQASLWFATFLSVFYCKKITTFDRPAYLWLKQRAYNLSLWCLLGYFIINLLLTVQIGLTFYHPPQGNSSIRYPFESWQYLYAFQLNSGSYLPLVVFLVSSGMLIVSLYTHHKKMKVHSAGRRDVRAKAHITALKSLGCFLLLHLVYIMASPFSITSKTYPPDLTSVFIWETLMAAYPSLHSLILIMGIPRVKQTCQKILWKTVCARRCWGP
Sequence of Taste receptor type 2 member 41 (Homo sapiens) (P59536 whole entry, the tested form may be a part): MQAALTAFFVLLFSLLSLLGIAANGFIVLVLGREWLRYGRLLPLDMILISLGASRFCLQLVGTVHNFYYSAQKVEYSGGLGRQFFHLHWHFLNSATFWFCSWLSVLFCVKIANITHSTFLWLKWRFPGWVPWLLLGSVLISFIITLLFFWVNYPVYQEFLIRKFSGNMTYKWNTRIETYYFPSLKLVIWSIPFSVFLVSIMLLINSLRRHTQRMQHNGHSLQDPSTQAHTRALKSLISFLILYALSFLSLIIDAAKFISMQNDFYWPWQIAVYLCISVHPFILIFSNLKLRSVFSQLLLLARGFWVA
Sequence of Taste receptor type 2 member 45 (Homo sapiens) (P59539 whole entry, the tested form may be a part): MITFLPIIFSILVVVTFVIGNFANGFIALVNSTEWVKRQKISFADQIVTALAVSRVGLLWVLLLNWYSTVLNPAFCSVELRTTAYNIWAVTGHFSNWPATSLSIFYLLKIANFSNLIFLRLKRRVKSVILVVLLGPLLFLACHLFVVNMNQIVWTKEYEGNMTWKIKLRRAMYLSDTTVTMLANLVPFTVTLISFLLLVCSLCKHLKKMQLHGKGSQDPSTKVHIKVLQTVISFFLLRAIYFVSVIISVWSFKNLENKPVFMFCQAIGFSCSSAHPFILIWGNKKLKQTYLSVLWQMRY

C/C1=C\C[C@H](O)/C(C)=C/[C@H]2OC(=O)[C@@H](C)C2CC1 (stereo not given in full)
inactive: Activity [1] | Activity [2] | Activity [3] | Activity [4] | Activity [5] | Activity [6] | Activity [10]
active: inhibition [7] | Activity [8] | Activity [9]
